Laboratory results from US6362369B1, “Phthalic acid diamide derivatives fluorine-containing aniline compounds as starting material, agricultural and horticultural insecticides, and a method for application of the insecticides” (Nihon Nohyaku Co., Ltd., priority 1997, dated 2002).

Legend:
Type in all cases: in vivo
[1] = tested on: diamondback moth (Plutella xylostella); assay: Insecticidal effect on diamondback moth (Test Example 1); settings: for Insecticidal effect (Test Example 1), judged from mortality / Insecticidal effect, Test Example 1: diamondback moth; for Insecticidal effect (Test Example 1), judged from mortality: judged by the criterion of Test Example 1; for Insecticidal effect on diamondback moth (Test Example 1), judged grade: mortality judged according to the criterion shown in Test Example 1
Procedure, shortened: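 Eggs laid by adult moths on Chinese cabbage seedlings, which were immersed in test solution, air-dried and kept at 25 °C. Hatched insects counted 6 days after immersion and mortality calculated, with effect graded by criterion; triplicate groups of 10 insects.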

[2] = tested on: common cutworm (Spodoptera Litura); assay: Insecticidal effect on common cutworm (Test Example 2); settings: 500 ppm, 25° C.; for Insecticidal effect (Test Example 2), judged from mortality / Insecticidal effect on common cutworm (Test Example 2), judged grade: cabbage leaf dip; for Insecticidal effect (Test Example 2), judged from mortality: 8 days after inoculation; for Insecticidal effect on common cutworm (Test Example 2), judged grade: second-instar larvae; for Insecticidal effect on common cutworm (Test Example 2), judged grade / Insecticidal effect, Test Example 2: eight days after inoculation; for Insecticidal effect, Test Example 2: cabbage leaf immersed
Procedure, shortened: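 Second-instar larvae placed in 9 cm Petri dishes with air-dried treated material, held at 25 °C. Dead and live insects counted 8 days after inoculation; mortality calculated and scored against a set criterion. Triplicate groups of 10 insects.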

[3] = tested on: rice leafroller (Cnaphalocrocis medinalis); assay: Insecticidal effect on rice leafroller (Test Example 3); settings: 500 ppm, 25° C., humidity 70%; for Insecticidal effect (Test Example 3), judged from mortality / Insecticidal effect on rice leafroller (Test Example 3), judged grade: rice lamina dip; for Insecticidal effect (Test Example 3), judged from mortality: 4 days after inoculation; for Insecticidal effect on rice leafroller (Test Example 3), judged grade: third-instar larvae; for Insecticidal effect on rice leafroller (Test Example 3), judged grade / Insecticidal effect, Test Example 3: four days after inoculation; for Insecticidal effect, Test Example 3: rice lamina immersed
Procedure, shortened: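 Groups of 10 third-instar larvae, in triplicate, are placed on air-dried lamina resting on wet filter paper. Incubation runs four days at 25° C with 70% humidity before survivors and dead are tallied.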

[4] = second-instar larvae of common cutworm
[5] = third-instar larvae of rice leafroller
[6] = mortality judged by criterion of Test Example 1
[7] = common cutworm second-instar larvae
[8] = rice leafroller third-instar larvae
[9] = judged by the mortality criterion of Test Example 1

Structure (SMILES)	Insecticidal effect, Test Example 1 [1, 6]	Insecticidal effect, Test Example 2 [2, 7]	Insecticidal effect, Test Example 3 [3, 8]	Insecticidal effect, Test Example 1 [1, 9]	Insecticidal effect, Test Example 2 [2, 4]	Insecticidal effect, Test Example 3 [3, 5]	further results
CC(C)NC(=O)c1c(I)cccc1C(=O)Nc1ccc2oc(C(F)(F)C(F)(F)C(F)(F)F)nc2c1 [compound 1637]	–	–	–	–	–	–	Insecticidal effect (Test Example 1), judged from mortality [1]: A (100); Insecticidal effect (Test Example 2), judged from mortality [2, 4]: A (100); Insecticidal effect (Test Example 3), judged from mortality [3, 5]: A (100)
Cc1cc(C(F)(F)C(F)(F)F)ccc1NC(=O)c1cccc(Cl)c1C(=O)NC(C)(C)C [compound 932]	–	–	–	–	–	–	Insecticidal effect on diamondback moth (Test Example 1), judged grade [1]: A (100); Insecticidal effect on common cutworm (Test Example 2), judged grade [2]: A (100); Insecticidal effect on rice leafroller (Test Example 3), judged grade [3]: A (100)
Cc1cc(C(F)(F)C(F)(F)C(F)(F)C(F)(F)F)ccc1NC(=O)c1cccc([N+](=O)[O-])c1C(=O)NC(C)C [compound 686]	–	–	–	–	–	–	Insecticidal effect on diamondback moth (Test Example 1), judged grade [1]: A (100); Insecticidal effect on common cutworm (Test Example 2), judged grade [2]: A (100); Insecticidal effect on rice leafroller (Test Example 3), judged grade [3]: A (100)
CSc1cccc(C(=O)Nc2ccc(OC(F)F)cc2C)c1C(=O)NC(C)C [compound 783]	–	–	–	–	–	–	Insecticidal effect on diamondback moth (Test Example 1), judged grade [1]: A (100); Insecticidal effect on common cutworm (Test Example 2), judged grade [2]: A (100); Insecticidal effect on rice leafroller (Test Example 3), judged grade [3]: A (100)
Cc1cc(OC(F)(F)F)ccc1NC(=O)c1cccc([N+](=O)[O-])c1C(=O)NC(C)C [compound 710]	–	–	–	–	–	–	Insecticidal effect on diamondback moth (Test Example 1), judged grade [1]: A (100); Insecticidal effect on common cutworm (Test Example 2), judged grade [2]: C (89-80); Insecticidal effect on rice leafroller (Test Example 3), judged grade [3]: A (100)
Cc1cc(OC(F)(F)F)ccc1NC(=O)c1cccc(Cl)c1C(=O)NC(C)(C)C [compound 944]	A (100)	A (100)	A (100)	–	–	–	–
Cc1cc(C(F)(F)C(F)(F)F)ccc1N(C)C(=O)c1cccc(I)c1C(=O)N(C)C(C)C [compound 1121]	A (100)	A (100)	A (100)	–	–	–	–
Cc1cc(OC(F)(F)C(F)(F)Br)ccc1NC(=O)c1cccc(Cl)c1C(=O)NC(C)C [compound 144]	–	–	–	A (100)	A (100)	A (100)	–
CC(C)NC(=O)c1c(Cl)cccc1C(=O)Nc1ccc2c(c1)nc(C(F)(F)F)n2C [compound 167]	–	–	–	A (100)	A (100)	A (100)	–
Cc1cc(F)ccc1NC(=O)c1cccc(I)c1C(=O)NC(C)C [compound 368]	–	–	–	A (100)	A (100)	A (100)	–
CC(C)NC(=O)c1c(C(=O)Nc2ccc(C(O)(C(F)(F)F)C(F)(F)F)cc2)cccc1[N+](=O)[O-] [compound 979]	A (100)	A (100)	A (100)	–	–	–	–
Cc1c(Cl)ccc(NC(=O)c2cccc(I)c2C(=O)NC(C)C)c1C [compound 365]	–	–	–	A (100)	A (100)	A (100)	–
Cc1cc(Oc2cccc(C(F)(F)F)c2)ccc1NC(=O)c1cccc(Br)c1C(=O)NC(C)C [compound 297]	–	–	–	A (100)	A (100)	B (99-90)	–
Cc1cc(Cl)ccc1NC(=O)c1ccc(Cl)cc1C(=O)NC(C)C [compound 177]	–	–	–	A (100)	A (100)	A (100)	–
Cc1cc(OC(F)(F)C(F)F)ccc1NC(=O)c1cccc(Cl)c1C(=O)NC(C)(C)C [compound 1061]	A (100)	A (100)	A (100)	–	–	–	–
Cc1cc(C(F)(F)C(F)(F)F)ccc1NC(=O)c1ccc(Cl)c(Cl)c1C(=O)NC(C)C [compound 1222, 3,4-dichloro-N^1-(4-pentafluoroethyl-2-methylphenyl)-N^2-isopropylphthalic acid diamide]	A (100)	A (100)	A (100)	–	–	–	–
CC(C)(C)NC(=O)c1c(I)cccc1C(=O)Nc1ccc2oc(C(F)(F)C(F)(F)C(F)(F)F)nc2c1 [compound 1639]	–	–	–	–	–	–	Insecticidal effect (Test Example 1), judged from mortality [1]: A (100); Insecticidal effect (Test Example 2), judged from mortality [2, 4]: A (100); Insecticidal effect (Test Example 3), judged from mortality [3, 5]: A (100)
CCCCCCNC(=O)c1c(I)cccc1C(=O)Nc1ccc(C(F)(F)C(F)(F)F)cc1C [compound 949]	A (100)	A (100)	A (100)	–	–	–	–
Cc1cc(OC(F)(F)C(F)C(F)(F)F)ccc1NC(=O)c1cccc(Cl)c1C(=O)NC(C)C (stereo not drawn) [compound 146]	–	–	–	A (100)	A (100)	A (100)	–
CC(C)NC(=O)c1c(I)cccc1C(=O)Nc1ccc(F)c(F)c1 [compound 360]	–	–	–	A (100)	D (79-50)	A (100)	–
Cc1cc(C(F)(F)F)ccc1NC(=O)c1c(Br)cccc1C(=O)NC(C)C [compound 316]	–	–	–	A (100)	A (100)	A (100)	–
Cc1cc(C(F)(F)C(F)(F)F)ccc1NC(=O)c1cccc(Cl)c1C(=O)NCC(C)O (stereo not drawn) [compound 1315]	A (100)	A (100)	A (100)	–	–	–	–
Cc1cc(C(F)(F)C(F)(F)F)ccc1NC(=O)c1cccc(Cl)c1C(=O)NC(C)c1ccc(Cl)cc1 (stereo not drawn) [compound 1366]	A (100)	A (100)	A (100)	–	–	–	–
Cc1cc(OC(F)(F)C(F)F)ccc1NC(=O)c1cccc([N+](=O)[O-])c1C(=O)NC(C)C [compound 712]	–	–	–	–	–	–	Insecticidal effect on diamondback moth (Test Example 1), judged grade [1]: A (100); Insecticidal effect on common cutworm (Test Example 2), judged grade [2]: A (100); Insecticidal effect on rice leafroller (Test Example 3), judged grade [3]: A (100)
CCCNC(=O)c1c(I)cccc1C(=O)Nc1ccc(OC(F)(F)C(F)F)cc1C [compound 1058]	A (100)	A (100)	A (100)	–	–	–	–
CC(C)(C)NC(=O)c1c(I)cccc1C(=O)Nc1ccc2oc(-c3ccc(C(F)(F)F)cc3)nc2c1 [compound 1174]	A (100)	A (100)	A (100)	–	–	–	–
CCC(CC)NC(=O)c1c(I)cccc1C(=O)Nc1ccc(C(F)(F)C(F)(F)F)cc1C [compound 1011]	A (100)	A (100)	A (100)	–	–	–	–
CC(C)NC(=O)c1c(C(=O)Nc2ccc(C(F)(F)C(F)(F)F)cc2)cccc1[N+](=O)[O-] [compound 890]	–	–	–	–	–	–	Insecticidal effect on diamondback moth (Test Example 1), judged grade [1]: A (100); Insecticidal effect on common cutworm (Test Example 2), judged grade [2]: A (100); Insecticidal effect on rice leafroller (Test Example 3), judged grade [3]: A (100)
Cc1cc(OC(F)(F)C(F)Cl)ccc1NC(=O)c1cccc(Cl)c1C(=O)NC(C)C (stereo not drawn) [compound 143]	–	–	–	A (100)	A (100)	A (100)	–
